From patent US9063142B1, “Method of predicting sensitivity to prostate cancer therapy” (University of Florida, priority 2004, dated 2015)

How the values were obtained:
Type in all cases: cell-based, human
[1] = tested on: LNCaP cells; assay: PARP cleavage by Western blotting; details: 30 micro-M pifithrin-alpha 24 hr, then 25 micro-M roscovitine 16 hr, FIG. 5A
Experimental: (§2) Cells were rinsed with PBS and lysed in a buffer containing 50 mM Hepes, pH 7.5, 150 mM NaCl, 1 mM EDTA, 1 mM EGTA, 10% glycerol, 0.5% NP-40, 1 mM dithiothreitol, 0.1 mM phenylmethylsulfonyl fluoride, 2.5 micro-g/ml leupeptin, 0.5 mM NaF, and 0.1 mM Na3VO4. After a 30 min incubation, insoluble material was removed by centrifugation. Cell extracts normalized for amount protein were resolved by SDS-PAGE and transferred to nitrocellulose membranes. Blots were blocked in PBS containing 0.05% Tween and 5% instant milk and incubated with antibody in PBS containing 0.05% Tween for 2 hr at room temperature. Proteins recognized by the antibody were detected by enhanced chemiluminescence using a horseradish peroxidase-coupled secondary antibody as specified by the manufacturer (Pierce).

[2] = tested on: p53; assay: p53 abundance in LNCaP cells, Western blotting; details: 30 micro-M pifithrin-alpha 24 hr, then 25 micro-M roscovitine 16 hr, FIG. 5A
Experimental: as §2

[3] = tested on: PC3 cells; assay: DNA fragmentation, Cell Death Detection ELISA; details: 20 hr, FIG. 5B
Experimental: (§1) DNA fragmentation was determined using a photometric enzyme-linked immunoassay (Cell Death Detection ELISA kit, Roche) as specified by the manufacturer. […] Cell lysates were incubated with biotin-conjugated anti-histone antibody and peroxidase-conjugated anti-DNA antibody on streptavidin-coated microtiter plates for 2 hr at room temperature. After incubation with ATBS substrate for development of color, absorbance was read on a spectrophotometer at 405 nm against ABTS solution as the blank. For background determination, lysis buffer was used instead of cell lysate.

[4] = tested on: LNCaP-Rf cells; assay: Keratin 18 cleavage, M30 immunostaining; details: 25 micro-M, 20 hr, FIG. 2B
Experimental: After incubation, cells were fixed in ice-cold methanol at […]. for 30 min and incubated with FITC-conjugated M30 antibody for 60 min at room temperature. Cells were mounted with Vectashield containing DAPI.

[5] = tested on: cytochrome c; assay: Cytochrome c in S100 cytosolic extracts of LNCaP cells, Western blotting; details: 25 micro-M, 20 hr, FIG. 3B
Experimental: Cells were washed in ice-cold PBS, resuspended in an isotonic mitochondrial buffer (210 mM mannitol, 70 mM sucrose, 1 mM EDTA, 10 mM Hepes, pH 7.5, and a protease inhibitor cocktail (Sigma)), and homogenized in a Dounce homogenizer. The heavy membrane fraction was removed by two successive centrifugations, the first at 1000 H g for 10 min and the second at 10,000 H g for 10 min. To obtain the […], the supernatant was centrifuged at 100,000 H g for 90 min.

[6] = tested on: LNCaP cells; assay: DNA fragmentation, Cell Death Detection ELISA; details: co-treated with 25 micro-M roscovitine, 20 hr, FIG. 3A
Experimental: as §1

For `Cc1ccc(C(=O)Cn2c3c(sc2=N)CCCC3)cc1` [pifithrin-α], the “PARP cleavage in roscovitine-treated cells” value [1] was “substantially reduced” and the “p53 abundance in cells co-treated with roscovitine” value [2] was “did not increase”.

For `CC[C@H](CO)Nc1nc(NCc2ccccc2)c2ncn(C(C)C)c2n1` [roscovitine, 6-benzylamino-2-[(R)-1-ethyl-2-hydroxye-thylamino]-9-isopropylpurine], the “increase in amounts of fragmented DNA” value ([3]; 25 μM) was 8 fold, the “increase in amounts of fragmented DNA” value ([3]; 50 μM) was 3 fold and the “keratin 18 cleavage” value [4] was “keratin 18 cleavage”. The “cytochrome c in the cytosol” value [5] was “present”.

For z-DEVD-fmk, the “roscovitine-induced apoptosis (DNA fragmentation) in presence of caspase inhibitor” value [6] was “did not induce apoptosis”.

In the case of z-LEHD-fmk, the “roscovitine-induced apoptosis (DNA fragmentation) in presence of caspase inhibitor” value [6] is reported as “did not induce apoptosis”.
